Here are results for 40 compounds from ChEMBL document CHEMBL1909576, “Continued exploration of biphenylsulfonamide scaffold as a platform for aggrecanase-1 inhibition” (Bioorg Med Chem Lett, 2011).

For assay [1], the target named is T1, A disintegrin and metalloproteinase with thrombospondin motifs 4 (Homo sapiens, UniProt O75173).
T1 sequence (O75173 whole entry): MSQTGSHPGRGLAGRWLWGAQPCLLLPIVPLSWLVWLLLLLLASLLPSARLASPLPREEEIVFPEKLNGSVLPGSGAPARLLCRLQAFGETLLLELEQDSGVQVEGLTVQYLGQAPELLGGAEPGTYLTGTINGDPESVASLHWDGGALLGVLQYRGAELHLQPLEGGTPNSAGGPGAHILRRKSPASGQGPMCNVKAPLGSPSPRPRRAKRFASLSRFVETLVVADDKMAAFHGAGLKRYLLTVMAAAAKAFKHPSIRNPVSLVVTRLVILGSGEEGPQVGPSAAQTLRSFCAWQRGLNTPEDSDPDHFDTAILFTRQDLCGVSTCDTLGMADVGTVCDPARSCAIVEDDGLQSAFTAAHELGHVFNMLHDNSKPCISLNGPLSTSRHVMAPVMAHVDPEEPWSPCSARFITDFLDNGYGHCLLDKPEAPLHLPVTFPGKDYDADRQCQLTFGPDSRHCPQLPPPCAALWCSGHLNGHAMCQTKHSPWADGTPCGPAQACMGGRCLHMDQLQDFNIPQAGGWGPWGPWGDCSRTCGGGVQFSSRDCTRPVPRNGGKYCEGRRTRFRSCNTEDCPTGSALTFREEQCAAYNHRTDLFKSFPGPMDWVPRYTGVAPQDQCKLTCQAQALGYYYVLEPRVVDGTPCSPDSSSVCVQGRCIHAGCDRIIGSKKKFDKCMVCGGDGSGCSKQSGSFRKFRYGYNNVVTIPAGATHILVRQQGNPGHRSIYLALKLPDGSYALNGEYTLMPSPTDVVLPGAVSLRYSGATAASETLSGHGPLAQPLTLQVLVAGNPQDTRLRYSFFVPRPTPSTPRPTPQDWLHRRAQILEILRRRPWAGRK
The assay can be described thus: Inhibition of aggrecanase-1.

The target in assay [2] is Collagenase 3 (Homo sapiens, UniProt P45452). Description: Inhibition of MMP13.

For the compound `CC(Oc1ccc(-c2ccc(S(=O)(=O)N[C@@H](C(=O)O)C(C)C)cc2)cc1)c1cccc(C(F)(F)F)c1` (some centres not stated), the 50% inhibitory concentration (IC50) in assay [1] stood at 2.7 µM; in assay [2], 12 nM.
In the case of `CC(C)[C@@H](NS(=O)(=O)c1ccc(-c2ccc(OCc3ccccn3)cc2)cc1)C(=O)O`, in assay [1], the IC50 is 33 µM.
On the same count and under the same terms, in the case of `CC(C)[C@@H](NS(=O)(=O)c1ccc(-c2ccc(Oc3ccccc3)cc2)cc1)C(=O)O` it was 13.2 µM; in that of `CC(C)[C@@H](NS(=O)(=O)c1ccc(-c2ccc(OS(=O)(=O)c3ccccc3)cc2)cc1)C(=O)O`, 8.2 µM.
As to `CC(C)[C@@H](NS(=O)(=O)c1ccc(-c2ccc(OC(=O)Nc3ccccc3)cc2)cc1)C(=O)O`, the half-maximal inhibitory concentration (IC50) in assay [1] turned out to be 5.6 µM.
For `CC(C)[C@@H](NS(=O)(=O)c1ccc(-c2ccc(OCc3ccnc(C(F)(F)F)c3)cc2)cc1)C(=O)O`, the IC50 in assay [1] came out at 2.2 µM; in assay [2] it was 1 nM.
In the same order, the values of `CC(C)[C@@H](NS(=O)(=O)c1ccc(-c2ccc(OCc3ccc(C#N)cc3)cc2)cc1)C(=O)O` are 1.4 µM and 0.1 nM.
For `CC(C)[C@@H](NS(=O)(=O)c1ccc(-c2ccc(OCc3cccc(O)c3)cc2)cc1)C(=O)O`, in that order: 3.7 µM and 4000 nM.
In the same order, the values of `CC(C)[C@@H](NS(=O)(=O)c1ccc(-c2ccc(OCc3ccnc4ccccc34)cc2)cc1)C(=O)O` are 1 µM and 5.2 nM.
`CC(=O)Nc1ccc(-c2ccc(S(=O)(=O)N[C@@H](C(=O)O)C(C)C)cc2)cc1` registered an IC50 in assay [1] of 100 µM.
Regarding `CC(=O)N(C)Cc1ccc(-c2ccc(S(=O)(=O)N[C@@H](C(=O)O)C(C)C)cc2)cc1`, the IC50 in assay [1] is more than 200 µM.
The same measure, in the same setting: in the case of `CNC(=O)Oc1ccc(-c2ccc(S(=O)(=O)N[C@@H](C(=O)O)C(C)C)cc2)cc1` it was 50 µM.
`CC(C)[C@@H](NS(=O)(=O)c1ccc(-c2ccc(OCc3cccc(F)c3)cc2)cc1)C(=O)O`: the IC50 in assay [1] came out at 2.6 µM; in assay [2], 2.2 nM.
In the same order, the values of `Cc1cc(COc2ccc(-c3ccc(S(=O)(=O)N[C@@H](C(=O)O)C(C)C)cc3)cc2)ccn1` are 2.4 µM and 0.7 nM.
The compound `CC(C)[C@@H](NS(=O)(=O)c1ccc(-c2cccc(C(N)=O)c2)cc1)C(=O)O` had an IC50 in assay [1] of 8.4 µM.
For the compound `CC(C)[C@@H](NS(=O)(=O)c1ccc(-c2ccc(OCc3cccc4ccccc34)cc2)cc1)C(=O)O`, the IC50 in assay [1] amounted to 1.4 µM; in assay [2], 7.1 nM.
As to `CC(C)[C@@H](NS(=O)(=O)c1ccc(-c2ccc(OCc3cccnc3)cc2)cc1)C(=O)O`, in assay [1], the concentration for half-maximal inhibition (IC50) was 30 µM.
For `CC(C)[C@@H](NS(=O)(=O)c1ccc(-c2cccc(CO)c2)cc1)C(=O)O`, in assay [1], the IC50 turned out to be 2.1 µM. This IC50 lies about 14-fold lower than the previous one.
`CC(C)[C@@H](NS(=O)(=O)c1ccc(-c2ccc(OCc3ccccc3C(F)(F)F)cc2)cc1)C(=O)O`: the IC50 in assay [1] stood at 9.1 µM; in assay [2], 24700 nM.
In the case of `CC(C)[C@@H](NS(=O)(=O)c1ccc(-c2ccc(OCc3ccc4ccccc4n3)cc2)cc1)C(=O)O`, the IC50 in assay [1] worked out at 10.6 µM.
On the same count and under the same terms, in the case of `CC(C)[C@@H](NS(=O)(=O)c1ccc(-c2cccc(C#N)c2)cc1)C(=O)O` it was 40 µM.
On to `CC(C)[C@@H](NS(=O)(=O)c1ccc(-c2ccc(OCc3cccc(Cl)c3)cc2)cc1)C(=O)O`, for which the figures for the IC50 in assay [1] and in assay [2] were 0.4 µM and 1.4 nM, respectively.
The compound `CC(=O)Nc1cccc(-c2ccc(S(=O)(=O)N[C@@H](C(=O)O)C(C)C)cc2)c1` registered a concentration for half-maximal inhibition (IC50) in assay [1] of 20 µM.
On to `CC(C)[C@@H](NS(=O)(=O)c1ccc(-c2ccc(OCc3cccc(C(F)(F)F)n3)cc2)cc1)C(=O)O`, for which the results for the concentration for half-maximal inhibition (IC50) in assay [1] and in assay [2] were 4.7 µM and 4300 nM, respectively.
For `CC(C)[C@@H](NS(=O)(=O)c1ccc(-c2ccc(OCc3cccc(Br)c3)cc2)cc1)C(=O)O`, in that order: 0.42 µM and 1600 nM.
In assay [2], `CC(C)[C@@H](NS(=O)(=O)c1ccc(-c2ccc(OCc3ccc4ccccc4c3)cc2)cc1)C(=O)O` returned a concentration for half-maximal inhibition (IC50) of 1.4 nM.
Take `CC(C)[C@@H](NS(=O)(=O)c1ccc(-c2ccc(OCc3cccc([N+](=O)[O-])c3)cc2)cc1)C(=O)O`: the figures for the IC50 in assay [1] and in assay [2] were 0.54 µM and 1.4 nM, respectively.
For `CC(C)[C@@H](NS(=O)(=O)c1ccc(-c2ccc(OC(N)=O)cc2)cc1)C(=O)O`, in assay [1], the half-inhibitory concentration (IC50) stood at 4.1 µM.
With `COC(=O)c1cccc(COc2ccc(-c3ccc(S(=O)(=O)N[C@@H](C(=O)O)C(C)C)cc3)cc2)c1`, the 50% inhibitory concentration (IC50) in assay [1] came out at 0.76 µM; in assay [2], 2.6 nM.
On to `CC(C)[C@@H](NS(=O)(=O)c1ccc(-c2cccc(CN)c2)cc1)C(=O)O`, for which the IC50 in assay [1] was 7.2 µM.
As to `Cc1cc(COc2ccc(-c3ccc(S(=O)(=O)N[C@@H](C(=O)O)C(C)C)cc3)cc2)c2ccccc2n1`, half-maximal inhibition in assay [2] (IC50) required 9.6 nM.
`CC(=O)NCc1cccc(-c2ccc(S(=O)(=O)N[C@@H](C(=O)O)C(C)C)cc2)c1`: the 50% inhibitory concentration (IC50) in assay [1] is more than 200 µM.
Regarding `CC(C)[C@@H](NS(=O)(=O)c1ccc(-c2ccc(OCc3ccc(C(F)(F)F)cc3)cc2)cc1)C(=O)O`, the half-maximal inhibitory concentration (IC50) was determined as 1.9 µM in assay [1] and 2 nM in assay [2].
For the compound `CC(C)[C@@H](NS(=O)(=O)c1ccc(-c2ccc(OCc3ccccc3)cc2)cc1)C(=O)O`, the half-inhibitory concentration (IC50) in assay [2] is 5.6 nM.
`CC(C)[C@@H](NS(=O)(=O)c1ccc(-c2ccc(OCc3ccncc3)cc2)cc1)C(=O)O`: the half-inhibitory concentration (IC50) in assay [1] was found to be 8.5 µM; in assay [2], 1.1 nM.
`CC(C)[C@@H](NS(=O)(=O)c1ccc(-c2ccc(CO)cc2)cc1)C(=O)O` yielded a half-maximal inhibitory concentration (IC50) in assay [1] of 15 µM.
`CC(C)[C@@H](NS(=O)(=O)c1ccc(-c2ccc(OCc3cccc(C(=O)O)c3)cc2)cc1)C(=O)O`: the concentration for half-maximal inhibition (IC50) in assay [1] was 22 µM; in assay [2], 2.7 nM.
Compound `CC(C)[C@@H](NS(=O)(=O)c1ccc(-c2ccc(OCC3CCCCC3)cc2)cc1)C(=O)O` yielded an IC50 in assay [1] of more than 75 µM.
In assay [1], `CC(C)[C@@H](NS(=O)(=O)c1ccc(-c2ccc(OC(=O)NCc3ccccc3)cc2)cc1)C(=O)O` yielded a half-inhibitory concentration (IC50) of 25 µM.
Same read-out and setting: under `CC(C)[C@@H](NS(=O)(=O)c1ccc(-c2ccc(CNC(=O)c3ccccc3)cc2)cc1)C(=O)O` stands 100 µM.
